Data as given in patent US20140336220A1, “COMPOSITION FOR PREVENTING OR TREATING OBESITY COMPRISING REBAMIPIDE” (The Catholic University of Korea Industry-Academic …, priority 2011, published 2014).

What was measured:
spleen cells = test: Spleen cell proliferation after aCD3 stimulation, thymidine; format: cell-based, mouse; conditions: FIG. 7B
Protocol: The spleen was extracted from the mouse of each group and spleen cells 2×10^5 of each mouse were divided into a 96-well plate and stimulated with 0.5 μg/ml of aCD3 and then cultured for 3 days. 16 hours before acquirement, the cells were stimulated with thymidine of […], and then, 16 hours after stimulation, proliferation of the mouse cells was measured.

[1] = test system: Th17 cells and Treg cells in spleen; test: Th17 and Treg cells in spleen sections, confocal microscope; format: in vivo, mouse; conditions: obese mice treated with rebamipide, FIG. 5A, 5B
From the text: (§1) In order to investigate whether or not rebamipide according to the present disclosure affected Th17 and Treg, the inventors of the present disclosure embedded a frozen section (optimal cutting temperature compound: O.C.T. compound) using the spleen of a mouse and rapidly cooled the tissue in liquid nitrogen and attached the tissue on a slide to a thickness of 7 μm using a cryo microtome. Then, the section was fixed with acetone and coated with 10% normal goat serum and blocked from a non-specific reaction for 30 minutes. Thereafter, the section was reacted at 4° C. overnight with primary antibodies, i.e. FITC-labeled anti-mFoxp3 Ab, PElabeled anti-mCD4 Ab, and APC-labeled anti-CD25 Ab, diluted with PBS (pH 7.5) at a ratio of 1:100 for Treg analysis and reacted with FITC-labeled anti-mCD4 Ab, and PE-labeled anti-mIL-17 for Th17 cell analysis. On the next day, the section was washed with a PBS solution, and a stained tissue was analyzed with a confocal microscope.

[2] = test system: animal models induced with obesity; test: Serum cholesterol, LDL-cholesterol and triglyceride, dose comparison; format: in vivo, mouse; conditions: FIG. 7A
Protocol: An experimental animal group was etherized and blood was collected from the heart. The collected blood was put into a centrifuge tube and centrifuged at 8000 rpm for 8 minutes at 20° C., so that the serum was separated.

Th17 cells = test: Th17 cell inhibition, flow cytometry of blood and spleen cells; format: cell-based, mouse; conditions: method: pre-treated at 1000 μM
Protocol: In order to stimulate CD4+ T cells 1×10 separated from the spleen under differentiation conditions of Th17 cells, the CD4+ T cells 1×10 were divided into a 24-well plate coated with 1 μg/Ml of an anti-CD3 antibody and treated with all of 1 μg/mL of an anti-CD28 antibody, 2 ng/ml of TGF-β, 20 ng/ml of IL-6, 10 ng/ml of anti-IL-4, and 10 ng/ml of anti-IFNr together suitable for stimulating Th17 cells. Then, the cells were stimulated for 1 hour. In this case, the cells were pre-treated with a rebamipide compound at a concentration of 1000 μM and cultured for 1 hour. The collected cells were allowed to react with a PerCP-anti-mouse CD4 antibody and a PE-anti-mouse phospho STATS antibody at 4° C. for 30 minutes in a dark field and washed with FACs buffer (0.002% sodium azide, 0.2% BSA/PBS). These cells were washed twice with Perm Wash buffer and re-floated on the FACs buffer and then analyzed with a flow cytometer.

STAT3 = STAT3 inhibition in spleen of obesity induced arthritis model, confocal microscope; format: in vivo, mouse; conditions: FIG. 16
From the text: In order to investigate whether or not rebamipide can inhibit STAT3, the inventors of the present disclosure extracted the spleen from a mouse in each group, and embedded a frozen section (optimal cutting temperature compound: O.C.T. compound) using the extracted spleen and rapidly cooled the tissue in liquid nitrogen and attached the tissue on a slide to a thickness of 7 μm using a cryo microtome. Then, the section was fixed with acetone and coated with 10% normal goat serum and blocked from a non-specific reaction for 30 minutes. Thereafter, the section was reacted at 4° C. overnight with primary antibodies, that is, FITC-labeled anti-mFoxp3 Ab, FITC labeled anti-mCD4 Ab, PE-labeled anti-p-STAT3 s727 Ab, and PE-labeled anti-p-STAT3 y705 Ab, diluted with PBS (pH 7.5) at a ratio of 1:50 for analyzing STAT3. On the next day, the section was washed with a PBS solution, and a stained tissue was analyzed with a confocal microscope.

[3] = test system: Th17 cells and Treg cells in spleen; test: Th17 and Treg cells in spleen of obesity induced arthritis model, confocal microscope; format: in vivo, mouse; conditions: FIG. 15
Protocol: as §1, with “Further, in” for “In”, “affects” for “according to the present disclosure affected”, “that is,” for “i.e.”

[4] = test system: animal model with collagen induced arthritis (CIA); test: Histological inspection of joints in collagen induced arthritis model; format: in vivo, mouse; conditions: 300 mg/kg oral, after 61 days, H&E, Toluidine blue, safranin O, FIG. 12
Protocol: Each animal model with collagen induced arthritis (CIA) was orally administered with rebamipide with a dose of 300 mg/kg. After 61 days, euthanasia was administered to the experimental animals. Then, hind legs of the mouse were fixed with 10% formalin, and compounds of calcium were removed from the bone and paraffin was coated. A section of the joint (7 μm) was prepared and stained with hematoxylin and eosin. Further, in order to check damage of cartilage, a histological inspection was carried out by staining with Toluidine blue and safranin O.

[5] = 100 mg/kg oral, compared between doses

O=C(NC(Cc1cc(=O)[nH]c2ccccc12)C(=O)O)c1ccc(Cl)cc1 (stereo not drawn) [rebamipide, 2-(4-chlorobenzoylamino)-3-[2(1H)-quinolinon-4-yl]propionic acid]
effect on proliferation of spleen cells (spleen cells; [5]): higher | proliferation of spleen cells (spleen cells; spleen cells of orally treated mice, 0.5 μg/ml aCD3, 3 days): inhibition of cell proliferation was decreased | Treg cells in spleen [1]: increased | expression of Th17 in spleen [1]: reduced | LDL-cholesterol in serum ([2]; 30 mg/kg and 100 mg/kg oral): statistically significantly reduced | cholesterol in serum ([2]; 30 mg/kg and 100 mg/kg oral): statistically significantly reduced | triglyceride in serum ([2]; 30 mg/kg and 100 mg/kg oral): statistically significantly reduced | reduction effect on serum cholesterol, LDL-cholesterol and triglyceride [2, 5]: generally highest | Th17 cells in blood (Th17 cells; FIG. 4A): significantly reduced | Th17 cells in spleen (Th17 cells; FIG. 4B): significantly reduced | p-STAT3 s705 in spleen (STAT3): decreased | p-STAT3 s727 in spleen (STAT3): decreased | Treg cells in spleen [3]: increased | expression of Th17 in spleen [3]: reduced | damage of the joint and cartilage (histology) [4]: damage of the joint and cartilage was not severe and maintained similarly to a normal mouse
